Publication PMC12486805, “Preclinical evaluation of tridecaptin M: in vitro and in vivo efficacy against colistin-resistant Gram-negative bacterial pathogens and pharmacokinetics” (Antimicrobial Agents and Chemotherapy, 2025)

Legend:
CYP1A2 = biological target: T1, CYP1A2 (Homo sapiens, UniProt P05177); experiment: in vitro; type: biochemical; details: human, % inhibition CYP 1A2
T1 sequence (P05177 1-516): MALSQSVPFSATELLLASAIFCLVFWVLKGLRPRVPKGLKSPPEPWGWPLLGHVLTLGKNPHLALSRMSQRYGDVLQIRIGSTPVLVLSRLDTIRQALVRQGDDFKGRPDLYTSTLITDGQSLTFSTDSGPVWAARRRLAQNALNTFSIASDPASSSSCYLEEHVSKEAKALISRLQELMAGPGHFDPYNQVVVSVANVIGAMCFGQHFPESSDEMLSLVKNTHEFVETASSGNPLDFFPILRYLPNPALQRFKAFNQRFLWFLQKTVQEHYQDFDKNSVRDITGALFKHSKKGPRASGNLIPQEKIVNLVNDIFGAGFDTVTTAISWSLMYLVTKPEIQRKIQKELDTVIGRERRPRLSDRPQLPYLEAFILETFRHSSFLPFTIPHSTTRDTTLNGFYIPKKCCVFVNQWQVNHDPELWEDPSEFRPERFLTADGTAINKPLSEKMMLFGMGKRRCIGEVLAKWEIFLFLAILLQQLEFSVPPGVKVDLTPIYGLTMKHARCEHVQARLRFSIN
Description: (§1) The CYP inhibition assay was performed for test/control inhibitor items in duplicates using a 96-well fluorescence plate. An example of the preparation of CYP inhibition is given below in Table 8.
(§2) The plate with CYP master premix with test/control was incubated to allow the test/control samples to interact with CYP enzyme for 10 ± 1 min at 25°C under shaking conditions (400 rpm) using Thermomixer. The assay was initiated by adding 10 µL of a substrate and NADP^+ mixture to all wells, including a vehicle control and an assay blank. […] After incubation, the reaction was quenched by adding 50 µL of stop reagent (0.5 M Tris base) to each well.

[1] = cited from earlier work
E. coli = type: cell-based, Escherichia coli
Description: (§3) The MIC for all isolates was determined using the broth microdilution method. This involved preparing CA-MHB medium and serially diluting antibiotic solutions by a factor of two. The test organism was adjusted to a concentration of ≈5 × 10^5 CFU/mL. In a sterile 96-well microtiter plate, 100 µL of CA-MHB, along with 100 µL of each antibiotic, was added, and serial dilutions were made. A 100 µL suspension of the organism was added to each well and mixed, resulting in a total reaction volume of 200 µL per well. The plate was then incubated at 37°C for 16–18 h. The MIC was identified as the lowest concentration of antibiotic that prevented any visible growth of the organism ([16]).

[2] = Intravenous acute toxicity in mice; type: in vivo, Balb/c mice; details: 18 mg/kg i.v.
Description: In total, 8–10 week old female Balb/c mice (n = 3) were administered tridecaptin M starting at 15 mg/kg, 25 mg/kg, 50 mg/kg, and 100 mg/kg. […] In this study, we administered 18 mg/kg of colistin to mice intravenously. […] Later, in the second set, intermediate concentrations of 20 mg/kg, 25 mg/kg, 30 mg/kg, 35 mg/kg, and 40 mg/kg doses were also administered to n = 4 mice. In these groups, blood was collected at 24 h post administration or immediately after visible movement stopped (40 mg/kg group), serum was separated and pooled together for each group n = 4, and biochemical serum tests were conducted.

K. pneumoniae = type: cell-based, Klebsiella pneumoniae
Description: as §3

[3] = tested on: K. pneumoniae ATCC 700603; experiment: Peritonitis infection model for intravenous efficacy in Balb/c mice; type: in vivo, Klebsiella pneumoniae; details: single i.v. dose 5 mg/kg, 4 h post-infection
Description: Balb/c mice (n = 6), 8-10 weeks old, are rendered neutropenic with cyclophosphamide as in previous experiments. A bacterial load of K. pneumoniae ATCC 700603 standard strain corresponding to ≈10^7 CFU/mL was used, and 100 μL was administered intraperitoneally to cause multi-organ infection conditions. At 4 h, the pre-treatment group was euthanized, and the right kidney of each mouse was harvested, homogenized, serially diluted, and spotted on MHA plates to determine bacterial CFU count per kidney. Simultaneously, at 4 h, the remaining groups were administered 5 mg/kg colistin, 5 mg/kg tridecaptin M, 10 mg/kg tridecaptin M, and vehicle control (PBS); 24 h after treatment, the remaining groups were euthanized, and the CFU count in the right kidney was determined the same as the 4 h pre-treatment group.

K. pneumoniae AH-16 = experiment: Mucin peritonitis survival model in BALB/c mice; type: in vivo, Klebsiella pneumoniae; details: 5 mg/kg s.c., three doses at 2, 12, 24 h post-infection
Description: The survival study was performed by following a method described earlier, with some modifications; 8–10 week old, female BALB/c mice, 10 mice in each group, were infected with 100μL (OD600nm = 1) of K. pneumoniae AH-16 bacterial suspension prepared in porcine mucin 5% via intraperitoneal injection. Mice were injected subcutaneously with tridecaptin M (10 mg/kg) and colistin (5 mg/kg). The treatment was given in three doses at 2 h, 12 h, and 24 h post-infection to ensure a 15 mg/kg/day maximum dose limit for colistin. The survival or death of mice was monitored and recorded every 12 h for 7 days ([41]).

in vitro [4] = details: human, liver microsomes, pH 7.4
in vitro [5] = details: mouse, liver microsomes, pH 7.4
in vitro [6] = details: rat, liver microsomes, pH 7.4
CYP2D6 = CYP2D6 (Homo sapiens, UniProt P10635); experiment: CYP inhibition assay, recombinant isoform, fluorescence; type: biochemical; details: human, recombinant CYP2D6
CYP2D6, sequence (P10635 whole entry, canonical isoform): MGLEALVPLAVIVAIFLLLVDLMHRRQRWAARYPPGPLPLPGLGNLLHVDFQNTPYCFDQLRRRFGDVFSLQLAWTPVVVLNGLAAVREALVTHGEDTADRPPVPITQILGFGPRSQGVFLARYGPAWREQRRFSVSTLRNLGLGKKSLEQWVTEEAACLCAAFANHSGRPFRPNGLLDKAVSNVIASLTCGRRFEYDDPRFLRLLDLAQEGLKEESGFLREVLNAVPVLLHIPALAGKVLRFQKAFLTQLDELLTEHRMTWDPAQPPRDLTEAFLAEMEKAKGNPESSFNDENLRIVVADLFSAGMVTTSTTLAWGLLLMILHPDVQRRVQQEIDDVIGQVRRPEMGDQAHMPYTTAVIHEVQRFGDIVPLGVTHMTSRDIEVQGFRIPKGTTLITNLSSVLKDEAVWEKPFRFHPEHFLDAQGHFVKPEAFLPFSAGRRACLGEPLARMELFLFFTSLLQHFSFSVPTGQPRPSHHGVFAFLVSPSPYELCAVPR
Description: as §1, §2

CYP2C9 = CYP2C9 (Homo sapiens, UniProt P11712); experiment: as above; type: biochemical; details: human, read-out: % inhibition CYP 2C9
CYP2C9, sequence (P11712 whole entry): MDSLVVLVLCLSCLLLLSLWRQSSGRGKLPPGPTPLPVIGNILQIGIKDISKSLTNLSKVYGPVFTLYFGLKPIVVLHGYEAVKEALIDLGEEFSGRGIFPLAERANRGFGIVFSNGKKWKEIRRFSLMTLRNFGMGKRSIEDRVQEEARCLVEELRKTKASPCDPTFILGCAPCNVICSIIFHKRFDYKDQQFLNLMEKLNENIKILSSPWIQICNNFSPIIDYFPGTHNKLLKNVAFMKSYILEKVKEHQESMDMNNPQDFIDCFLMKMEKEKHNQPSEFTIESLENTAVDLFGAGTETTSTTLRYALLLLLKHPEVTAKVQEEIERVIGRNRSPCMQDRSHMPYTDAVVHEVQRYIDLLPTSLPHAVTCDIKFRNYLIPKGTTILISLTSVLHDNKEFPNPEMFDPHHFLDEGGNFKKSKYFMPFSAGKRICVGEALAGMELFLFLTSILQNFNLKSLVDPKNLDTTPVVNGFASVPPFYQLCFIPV
Description: as §1
The plate with CYP master premix with test/control was incubated to allow the test/control samples to interact with CYP enzyme for 10 ± 1 min at 25°C under shaking conditions (400 rpm) using Thermomixer. The assay was initiated by adding 10 µL of a substrate and NADP^+ mixture to all wells, including a vehicle control and an assay blank. The plate was then incubated at 25°C for 25 min with shaking at 400 rpm using a thermomixer. After incubation, the reaction was quenched by adding 50 µL of stop reagent (0.5 M Tris base) to each well. Fluorescence was measured using a microplate reader at excitation/emission wavelengths of 415/460 nm, respectively ([37]).

Cc1nc2c([nH]1)c(=O)n(C)c(=O)n2Cc1ccco1 [Furafylline, reference compound]
inhibition at 25 min, 0.01 µM (CYP1A2): < 0%
inhibition at 25 min, 0.03 µM (CYP1A2): < 0%
inhibition at 25 min, 0.1 µM (CYP1A2): < 0%
inhibition at 25 min, 0.3 µM (CYP1A2): 9.3%
inhibition at 25 min, 1 µM (CYP1A2): 45.3%
inhibition at 25 min, 3 µM (CYP1A2): 67.7%
inhibition at 25 min, 10 µM (CYP1A2): 90.8%

colistin [reference compound]
subcutaneous dose known to be lethal to mice [1]: exceeding 36 mg/kg
mortality in acute toxicity study ([1]; colistin group of the same study): all mice in the colistin group died within 24 h
MIC range (E. coli; Col-S clinical isolates (52)): 0.25 to 1 µg/mL
MIC (E. coli; Std. QC strain ATCC 25922): 0.25 µg/mL
outcome of i.v. administration [2]: immediately lethal
MIC range (K. pneumoniae; Col-S (colistin sensitive) clinical isolates (72)): 0.25 to 2 µg/mL
MIC (K. pneumoniae; Std. QC strain ATCC 700603): 0.5 µg/mL
efficacy (CFU/kidney) compared with tridecaptin M [3]: superior performance
survival at the end of 7 days (K. pneumoniae AH-16): 40%

O=C(O)Cc1ccccc1Nc1c(Cl)cccc1Cl [Diclofenac, reference compound]
half-life (in vitro [4]): 0.327 h
microsomal CLint (in vitro [4]): 70.6 µL/min/mg
remaining at 0.25 h (in vitro [4]): 53.2%
remaining at 0.5 h (in vitro [4]): 36.5%
remaining at 1 h (in vitro [4]): 11.6%
remaining at 2 h (in vitro [4]): 8.3%
half-life (in vitro [5]): 1.54 h
microsomal CLint (in vitro [5]): 15 µL/min/mg
remaining at 0.5 h (in vitro [5]): 77.7%
remaining at 1 h (in vitro [5]): 58.7%
remaining at 2 h (in vitro [5]): 40.1%
half-life (in vitro [6]): > 2 h
microsomal CLint (in vitro [6]): < 11.6 µL/min/mg
remaining at 0.25 h (in vitro [6]): 102%
remaining at 0.5 h (in vitro [6]): 88.6%
remaining at 1 h (in vitro [6]): 67.2%
remaining at 2 h (in vitro [6]): 64.5%

C=C[C@H]1C[N@@]2CC[C@H]1C[C@@H]2[C@@H](O)c1ccnc2ccc(OC)cc12 [Quinidine, reference compound]
inhibition at 25 min, 0.003 µM (CYP2D6): 52.4%
inhibition at 25 min, 0.0003 µM (CYP2D6; 0.0003 µM, read-out: % inhibition CYP 2D6): < 0%
inhibition at 25 min, 0.001 µM (CYP2D6; 0.001 µM, read-out: % inhibition CYP 2D6): 14%
inhibition at 25 min, 0.01 µM (CYP2D6; 0.01 µM, read-out: % inhibition CYP 2D6): 88.6%
inhibition at 25 min, 0.03 µM (CYP2D6; 0.03 µM, read-out: % inhibition CYP 2D6): 92.6%
inhibition at 25 min, 0.1 µM (CYP2D6; 0.1 µM, read-out: % inhibition CYP 2D6): 93.4%
inhibition at 25 min, 0.3 µM (CYP2D6; 0.3 µM, read-out: % inhibition CYP 2D6): 92.5%
inhibition at 25 min, 1 µM (CYP2D6; 1 µM, read-out: % inhibition CYP 2D6): 95.7%

Nc1ccc(S(=O)(=O)Nc2ccnn2-c2ccccc2)cc1 [Sulfaphenazole, reference compound]
inhibition at 25 min, 0.001 µM (CYP2C9; 0.001 µM): < 0%
inhibition at 25 min, 0.003 µM (CYP2C9; 0.003 µM): 3.42%
inhibition at 25 min, 0.01 µM (CYP2C9; 0.01 µM): 11.3%
inhibition at 25 min, 0.03 µM (CYP2C9; 0.03 µM): 27.2%
inhibition at 25 min, 0.1 µM (CYP2C9; 0.1 µM): 34.7%
inhibition at 25 min, 0.3 µM (CYP2C9; 0.3 µM): 45.2%
inhibition at 25 min, 1 µM (CYP2C9; 1 µM): 53.5%
inhibition at 25 min, 3 µM (CYP2C9; 3 µM): 57.9%
